Calls of active or inactive are those of the source. The calls are words filed in the database; no cut-off is given here.
Tests used:
Mus musculus [1] = test: Anticonvulsant activity in ip dosed albino mouse model of maximal electroshock-induced seizures assessed as prevention of tonic hind limb extension pretreated for 4 hrs followed by 50 mA current-induction for 0.25 secs; format: functional
[2] = Neurotoxicity in ip dosed albino mouse assessed as motor impairment measured at 4 hrs by rotarod test; format: toxicity, organism-based; conditions: in vivo
Mus musculus [3] = test: Anticonvulsant activity in ip dosed albino mouse model of subcutaneous pentylenetetrazole-induced seizure assessed as failure to observe even a single episode of clonic spasms for at least 5 secs pretreated for 0.5 hrs followed by pentylenetetrazole induction; format: functional
[4] = Neurotoxicity in ip dosed albino mouse assessed as motor impairment measured at 0.5 hrs by rotarod test; format: toxicity, organism-based; conditions: in vivo
Mus musculus [5] = test: Anticonvulsant activity in ip dosed albino mouse model of maximal electroshock-induced seizures assessed as prevention of tonic hind limb extension pretreated for 0.5 hrs followed by 50 mA current-induction for 0.25 secs; format: functional
Mus musculus [6] = test: Anticonvulsant activity in ip dosed albino mouse model of subcutaneous pentylenetetrazole-induced seizure assessed as failure to observe even a single episode of clonic spasms for at least 5 secs pretreated for 4 hrs followed by pentylenetetrazole induction; format: functional
[7] = biological target: 4-aminobutyrate aminotransferase, mitochondrial (Mus musculus, UniProt P61922); test: Inhibition of GABA aminotransferase in mouse brain homogenates using GABA and alpha-ketoglutarate as substrates preincubated for 30 mins followed by beta-NADP addition and measured for 20 mins by spectrophotometric method; format: tissue-based
4-aminobutyrate aminotransferase, mitochondrial, sequence (P61922 whole entry): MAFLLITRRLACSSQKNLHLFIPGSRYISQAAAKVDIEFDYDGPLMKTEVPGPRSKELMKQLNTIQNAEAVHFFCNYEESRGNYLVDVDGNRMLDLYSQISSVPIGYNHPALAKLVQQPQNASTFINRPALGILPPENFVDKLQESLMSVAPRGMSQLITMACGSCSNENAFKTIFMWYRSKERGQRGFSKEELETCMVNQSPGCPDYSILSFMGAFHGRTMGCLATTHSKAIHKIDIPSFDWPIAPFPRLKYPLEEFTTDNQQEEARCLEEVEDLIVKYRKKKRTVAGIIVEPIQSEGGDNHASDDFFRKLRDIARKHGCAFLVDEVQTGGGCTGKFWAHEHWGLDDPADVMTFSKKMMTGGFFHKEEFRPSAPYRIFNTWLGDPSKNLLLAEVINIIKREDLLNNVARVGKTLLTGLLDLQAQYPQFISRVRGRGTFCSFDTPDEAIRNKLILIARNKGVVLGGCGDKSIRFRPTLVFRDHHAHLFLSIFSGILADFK

Mus musculus [8] = test: Anticonvulsant activity in po dosed albino mouse brain assessed as increase in brain GABA level administered for 7 days by TLC analysis; format: functional
[9] = Hepatotoxicity in albino mouse assessed as decrease in serum SGOT level at 30 mg/kg, po administered daily for one month measured post-last dose; format: toxicity, organism-based; conditions: in vivo
[10] = Hepatotoxicity in albino mouse assessed as decrease in serum alkaline phosphatase level at 30 mg/kg, po administered daily for one month measured post-last dose; format: toxicity, organism-based; conditions: in vivo
[11] = Hepatotoxicity in albino mouse assessed as appearance of normal hepatocyte with clearing of cytoplasm at 30 mg/kg, po administered daily for one month measured post-last dose by histopathological analysis; format: toxicity, organism-based; conditions: in vivo
[12] = Hepatotoxicity in albino mouse assessed as decrease in serum SGPT level at 30 mg/kg, po administered daily for one month measured post-last dose; format: toxicity, organism-based; conditions: in vivo
[13] = Hepatotoxicity in albino mouse assessed as increase in serum serum alkaline phosphatase level at 30 mg/kg, po administered daily for one month measured post-last dose; format: toxicity, organism-based; conditions: in vivo
[14] = Hepatotoxicity in albino mouse assessed as increase in serum SGPT level at 30 mg/kg, po administered daily for one month measured post-last dose; format: toxicity, organism-based; conditions: in vivo

Row | SMILES | MED=>50 (Mus musculus [1]) | MED=>50 [2] | MED=>50 (Mus musculus [3]) | MED=>50 [4] | MED=>50 (Mus musculus [5]) | MED=>50 (Mus musculus [6]) | IC50 [7] | fold change (FC) (Mus musculus [8]) | Activity [9] | Activity [10] | Activity [11] | Activity [12] | Activity [13] | Activity [14]
1 | COc1ccc(C2SCC(=O)N2NC(=O)Nc2nc3ccc(Cl)cc3s2)cc1 (stereo not drawn) | inactive | Non-Toxic | inactive | Non-Toxic | 300 mg/kg | inactive |  |  |  |  |  |  |  | 
2 | Cc1ccccc1C1C(Cl)C(=O)N1NC(=O)Nc1nc2ccc(Cl)cc2s1 (stereo not drawn) | 300 mg/kg | 300 mg/kg | inactive | 300 mg/kg | 300 mg/kg | inactive |  |  |  |  |  |  |  | 
3 | O=C(Nc1nc2ccc(Cl)cc2s1)NN1C(=O)CSC1c1ccccc1 (stereo not drawn) | 300 mg/kg | Non-Toxic | 300 mg/kg | Non-Toxic | 300 mg/kg | 300 mg/kg |  |  |  |  |  |  |  | 
4 | C=CC(N)CCC(=O)O (stereo not drawn) [VIGABATRIN] |  |  |  |  |  |  | 39.7 µM |  |  |  |  |  |  | 
5 | CC(=O)Oc1ccccc1C1SCC(=O)N1NC(=O)Nc1nc2ccc(Cl)cc2s1 (stereo not drawn) | 300 mg/kg | Non-Toxic | inactive | Non-Toxic | 300 mg/kg | inactive |  |  |  |  |  |  |  | 
6 | O=C(Nc1nc2ccc(Cl)cc2s1)NN1C(=O)CSC1c1ccccc1Cl (stereo not drawn) | 100 mg/kg | Non-Toxic | 300 mg/kg | Non-Toxic | 100 mg/kg | 300 mg/kg |  |  |  |  |  |  |  | 
7 | O=C(Nc1nc2ccc(Cl)cc2s1)NN1C(=O)CSC1c1ccc(Cl)cc1Cl (stereo not drawn) | 100 mg/kg | Non-Toxic | 100 mg/kg | Non-Toxic | 30 mg/kg | 100 mg/kg | 15.3 µM | 1.5 | Toxic | Toxic | Non-Toxic | Toxic |  | 
8 | COc1ccc(C2C(Cl)C(=O)N2NC(=O)Nc2nc3ccc(Cl)cc3s2)cc1 (stereo not drawn) | 300 mg/kg | Non-Toxic | inactive | Non-Toxic | 300 mg/kg | inactive |  |  |  |  |  |  |  | 
9 | Cc1ccccc1C1SCC(=O)N1NC(=O)Nc1nc2ccc(Cl)cc2s1 (stereo not drawn) | 300 mg/kg | 300 mg/kg | inactive | 300 mg/kg | 300 mg/kg | inactive |  |  |  |  |  |  |  | 
10 | CC(=O)Oc1ccccc1C1C(Cl)C(=O)N1NC(=O)Nc1nc2ccc(Cl)cc2s1 (stereo not drawn) | 300 mg/kg | Non-Toxic | inactive | Non-Toxic | 300 mg/kg | inactive |  |  |  |  |  |  |  | 
11 | O=C(Nc1nc2ccc(Cl)cc2s1)NN1C(=O)C(Cl)C1c1ccc([N+](=O)[O-])cc1 (stereo not drawn) | 100 mg/kg | Non-Toxic | 300 mg/kg | Non-Toxic | 100 mg/kg | 300 mg/kg |  |  |  |  |  |  |  | 
12 | O=C(Nc1nc2ccc(Cl)cc2s1)NN1C(=O)C(Cl)C1c1ccccc1Cl (stereo not drawn) | 300 mg/kg | Non-Toxic | inactive | Non-Toxic | 300 mg/kg | inactive |  |  |  |  |  |  |  | 
13 | O=C(Nc1nc2ccc(Cl)cc2s1)NN1C(=O)C(Cl)C1c1ccc(Cl)cc1Cl (stereo not drawn) | 100 mg/kg | Non-Toxic | 100 mg/kg | Non-Toxic | 30 mg/kg | 100 mg/kg | 51.4 µM |  | Toxic |  |  |  | Toxic | Toxic
14 | O=C(Nc1nc2ccc(Cl)cc2s1)NN1C(=O)C(Cl)C1c1ccccc1 (stereo not drawn) | 300 mg/kg | Non-Toxic | inactive | Non-Toxic | 300 mg/kg | inactive |  |  |  |  |  |  |  | 
15 | CCCC(CCC)C(=O)O [VALPROIC ACID] | inactive | Non-Toxic | 300 mg/kg | Non-Toxic | inactive | inactive |  |  |  |  |  |  |  | 
16 | O=C(Nc1nc2ccc(Cl)cc2s1)NN1C(=O)CSC1c1ccc([N+](=O)[O-])cc1 (stereo not drawn) | 100 mg/kg | Non-Toxic | 100 mg/kg | Non-Toxic | 30 mg/kg | 100 mg/kg | 58.1 µM |  | Toxic |  |  |  | Toxic | Toxic
17 | NC(=O)N1c2ccccc2C=Cc2ccccc21 [CARBAMAZEPINE] | 100 mg/kg | 300 mg/kg | 100 mg/kg | 100 mg/kg | 30 mg/kg | 100 mg/kg |  |  |  |  |  |  |  | 
18 | O=C1NC(=O)C(c2ccccc2)(c2ccccc2)N1 [PHENYTOIN] | 30 mg/kg | 100 mg/kg | inactive | 100 mg/kg | 30 mg/kg | inactive |  |  |  |  |  |  |  | 
19 | CCC1(C)CC(=O)NC1=O (stereo not drawn) [ETHOSUXIMIDE] | inactive | Non-Toxic | 300 mg/kg | Non-Toxic | inactive | inactive |  |  |  |  |  |  |  | 

Reference: ChEMBL document CHEMBL4340556, “Novel benzothiazole hydrazine carboxamide hybrid scaffolds as potential in vitro GABA AT enzyme inhibitors: Synthesis, molecular docking and antiepileptic evaluation” (Bioorg Med Chem Lett, 2019)
